According to patent publication US9957251B2 (Takeda Pharmaceutical Company Limited, priority 2014, dated 2018):
Where a name gives a salt, the structure may show the parent alone.

How the values were obtained:
[1] = biological target: T1, CDK19 (CDC2L6/CycC) (Homo sapiens, UniProt Q9BWU1); experiment: CDK19 inhibitory activity (TR-FRET, Kinase Tracer-236 displacement); format: binding; conditions: 1 μM of the test compound; for inhibition at 1 µM: read-out: Percent inhibition of CDK19 activity (%); for Percent inhibition of CDK19 activity (%): 1 µM
T1 construct: purchased Carna Biosciences
T1 sequence (Q9BWU1 whole entry): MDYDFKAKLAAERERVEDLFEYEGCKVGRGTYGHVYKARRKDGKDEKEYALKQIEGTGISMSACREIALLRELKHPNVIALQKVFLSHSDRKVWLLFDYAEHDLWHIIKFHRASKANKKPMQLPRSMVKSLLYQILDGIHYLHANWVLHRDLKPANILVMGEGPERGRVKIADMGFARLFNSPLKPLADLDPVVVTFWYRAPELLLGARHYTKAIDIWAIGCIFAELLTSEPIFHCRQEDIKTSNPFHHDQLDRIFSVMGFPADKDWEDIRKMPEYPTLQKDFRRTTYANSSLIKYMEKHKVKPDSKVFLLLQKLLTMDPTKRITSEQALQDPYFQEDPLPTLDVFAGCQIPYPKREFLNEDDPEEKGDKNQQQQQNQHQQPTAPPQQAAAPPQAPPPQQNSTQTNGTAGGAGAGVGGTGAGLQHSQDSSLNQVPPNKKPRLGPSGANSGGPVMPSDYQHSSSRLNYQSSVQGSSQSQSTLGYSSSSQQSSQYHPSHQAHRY
T1 sequence (P24863 whole entry partner): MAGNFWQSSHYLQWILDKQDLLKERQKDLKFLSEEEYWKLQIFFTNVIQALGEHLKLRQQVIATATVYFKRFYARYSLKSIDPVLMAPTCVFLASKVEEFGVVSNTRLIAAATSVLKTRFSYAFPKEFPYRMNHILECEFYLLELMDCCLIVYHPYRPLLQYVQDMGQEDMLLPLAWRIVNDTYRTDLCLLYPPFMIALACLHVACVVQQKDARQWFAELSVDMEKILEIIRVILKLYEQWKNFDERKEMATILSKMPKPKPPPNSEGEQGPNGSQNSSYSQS
Description: (§1) The compound of the present invention was evaluated for its CDK8 inhibitory activity and CDK19 inhibitory activity by the following method. […] The primary diluted solution was dispensed in the amount of 2 μL/well to a 384-well plate, and then, a mixed solution of Eu^3+ Cryptate conjugated mouse monoclonal antibody anti-glutathione S-transferase (Cisbio) diluted 267-fold with an assay buffer and 60 nM Kinase Tracer-236 (Life technologies) was added thereto at 2 μL/well. After the addition, each kinase solution (84 ng/mL CDK8/CycC (Carna Biosciences) diluted with an assay buffer used for CDK8 inhibitory activity measurement, and 87 ng/mL CDC2L6/CycC (Carna Biosciences) diluted with an assay buffer used for CDK19 inhibitory activity measurement) was further added thereto at 2 μL/well. After the addition, the plate was left standing at room temperature for 1 hour, and then, the fluorescence intensity (excitation wavelength 320 nm, fluorescence wavelength 615 nm, 665 nm, delay time 50 μsec) was measured using an EnVision plate reader (PerkinElmer).

[2] = biological target: T2, CDK8/CycC (Homo sapiens, UniProt P49336); experiment: CDK8 inhibitory activity (TR-FRET, Kinase Tracer-236 displacement); format: binding; conditions: 1 μM of the test compound; for inhibition at 1 µM: read-out: Percent inhibition of CDK8 activity (%); for Percent inhibition of CDK8 activity (%): 1 µM
T2 construct: purchased Carna Biosciences
T2 sequence (P49336 whole entry): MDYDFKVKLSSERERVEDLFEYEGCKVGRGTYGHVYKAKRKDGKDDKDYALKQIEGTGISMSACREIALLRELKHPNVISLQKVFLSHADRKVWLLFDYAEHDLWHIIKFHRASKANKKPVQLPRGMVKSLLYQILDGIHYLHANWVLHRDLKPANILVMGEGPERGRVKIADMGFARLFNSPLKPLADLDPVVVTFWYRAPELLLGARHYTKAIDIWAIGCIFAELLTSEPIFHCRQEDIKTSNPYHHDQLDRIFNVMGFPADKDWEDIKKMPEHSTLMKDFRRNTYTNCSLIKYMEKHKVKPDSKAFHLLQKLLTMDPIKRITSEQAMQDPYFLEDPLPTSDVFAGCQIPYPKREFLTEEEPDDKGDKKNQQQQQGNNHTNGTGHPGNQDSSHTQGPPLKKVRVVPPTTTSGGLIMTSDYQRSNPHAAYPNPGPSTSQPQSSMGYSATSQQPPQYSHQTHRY
T2 sequence (P24863 whole entry partner): as the sequence (P24863 whole entry partner) above
Description: as §1

[3] = system: human multiple myeloma RPMI8226 cells; experiment: Inhibitory activity against human multiple myeloma RPMI8226 cell growth (CellTiter-Glo); format: cell-based; conditions: 1 μM of the test compound, cultured for 8 days; for inhibition at 1 µM: Homo sapiens, RPMI-8226, 192 h, read-out: Percent inhibition of RPMI8226 cell growth (%); for Percent inhibition of RPMI8226 cell growth (%): 1 µM
Description: The compound of the present invention was evaluated for its inhibitory activity against human multiple myeloma RPMI8226 cell growth by the following method.
A suspension of human multiple myeloma RPMI8226 cells (purchased from the Health Protection Agency) was inoculated at 40 μL (300 cells/well) to a 384-well plate and cultured at 37° C. for 1 day in a 5% CO2 incubator. After the culture, each test compound solution was added thereto at a test concentration of 1 μM using TECAN D300, and the cells were further cultured for 8 days. After the culture, CellTiter-Glo™ Luminescent Cell Viability Assay reagent (Promega) was added at 40 μL/well to a 384-well plate, and the amount of luminescence was measured using a luminometer. Inhibitory activity against human multiple myeloma RPMI8226 cell growth (percent inhibition (%)) of the test compound was calculated according to the following formula, which is based on the hypothesis that the amount of residual ATP reflects the number of cells. In this formula, 100% control represents the amount of luminescence from a well with only 0.1% DMSO added. Percent inhibition (%)=(1−(amount of luminescence of the test compound)÷(100% control))×100

SMILES | inhibition at 1 µM [1] | inhibition at 1 µM [2] | inhibition at 1 µM [3] | further results
COCc1ccc(NC(=O)/C=C/c2cnccc2-c2cnn(C)c2)cc1 [Example 239, (2E)-N-(4-(methoxymethyl)phenyl)-3-(4-(1-methyl-1H-pyrazol-4-yl)pyridin-3-yl)acrylamide] | 100% | 100% | 65% | 
Cc1ncc(-c2ccncc2/C=C/C(=O)Nc2ccc(CN3CCOCC3)cc2)s1 [Example 151, (2E)-3-(4-(2-methyl-1,3-thiazol-5-yl)pyridin-3-yl)-N-(4-(morpholin-4-ylmethyl)phenyl)acrylamide] | 95% | 95% | 54% | 
COCCn1cnc2ccc(-c3ccncc3/C=C/C(=O)Nc3ccc(CN4CCOCC4)cc3)cc21 [Example 295, (2E)-3-(4-(1-(2-methoxyethyl)-1H-benzimidazol-6-yl)pyridin-3-yl)-N-(4-(morpholin-4-ylmethyl)phenyl)acrylamide] | 97% | 103% | 62% | 
Cn1cnc2ccc(-c3ccncc3/C=C/C(=O)Nc3ccc(CN4CCOCC4)cc3)cc21 [Example 234, (2E)-3-(4-(1-methyl-1H-benzimidazol-6-yl)pyridin-3-yl)-N-(4-(morpholin-4-ylmethyl)phenyl)acrylamide] | 102% | 102% | 65% | 
Cn1cc(-c2ccncc2/C=C/C(=O)Nc2ccc(CN3CCOCC3)c(O)c2)cn1 [Example 148, (2E)-N-(3-Hydroxy-4-(morpholin-4-ylmethyl)phenyl)-3-(4-(1-methyl-1H-pyrazol-4-yl)pyridin-3-yl)acrylamide] | 99% | 97% | 54% | 
Cn1cc(-c2c(F)cncc2/C=C/C(=O)Nc2ccc(CN3CCOCC3)cc2)cn1 [Example 238, (2E)-3-(5-fluoro-4-(1-methyl-1H-pyrazol-4-yl)pyridin-3-yl)-N-(4-(morpholin-4-ylmethyl)phenyl)acrylamide] | 100% | 100% | 67% | 
Cn1cc(-c2ccncc2/C=C/C(=O)Nc2ccc3c(c2)CCCC3=O)cn1 [Example 191, (2E)-3-(4-(1-methyl-1H-pyrazol-4-yl)pyridin-3-yl)-N-(5-oxo-5,6,7,8-tetrahydronaphthalen-2-yl)acrylamide] | 92% | 96% | 56% | 
O=C(/C=C/c1cnccc1-c1cnn(C2CC2)c1)Nc1ccc(CN2CC(F)C2)cc1 [Example 365, (2E)-3-(4-(1-Cyclopropyl-1H-pyrazol-4-yl)pyridin-3-yl)-N-(4-((3-fluoroazetidin-1-yl)methyl)phenyl)acrylamide] | 99% | 107% | 58% | 
Cn1cc(-c2ccncc2/C=C/C(=O)Nc2ccc3cnccc3c2)cn1 [Example 154, (2E)-N-(isoquinolin-6-yl)-3-(4-(1-methyl-1H-pyrazol-4-yl)pyridin-3-yl)acrylamide] | 99% | 96% | 62% | 
Cn1cc(-c2ccncc2/C=C/C(=O)Nc2ccc(CN3CC(F)(F)C3)cc2)cn1 [Example 69, (2E)-N-(4-((3,3-difluoroazetidin-1-yl)methyl)phenyl)-3-(4-(1-methyl-1H-pyrazol-4-yl)pyridin-3-yl)acrylamide] | 99% | 99% | 48% | 
O=C(/C=C/c1cnccc1-c1cnn(C2CC2)c1)Nc1ccc(CN2CC(F)(F)C2)cc1 [Example 374, (2E)-3-(4-(1-Cyclopropyl-1H-pyrazol-4-yl)pyridin-3-yl)-N-(4-((3,3-difluoroazetidin-1-yl)methyl)phenyl)acrylamide diphosphate] |  |  |  | Percent inhibition of CDK19 activity (%) [1]: 100%; Percent inhibition of CDK8 activity (%) [2]: 100%; Percent inhibition of RPMI8226 cell growth (%) [3]: 69%
Cn1cc(-c2ccncc2/C=C/C(=O)Nc2ccc3cc[nH]c3c2)cn1 [Example 155, (2E)-N-(1H-indol-6-yl)-3-(4-(1-methyl-1H-pyrazol-4-yl)pyridin-3-yl)acrylamide] | 93% | 98% | 54% | 
Cc1noc(C)c1-c1ccc(NC(=O)/C=C/c2cnccc2-c2cnn(C3CC3)c2)c(F)c1 [Example 311, (2E)-3-(4-(1-cyclopropyl-1H-pyrazol-4-yl)pyridin-3-yl)-N-(4-(3,5-dimethyl-1,2-oxazol-4-yl)-2-fluorophenyl)acrylamide] | 98% | 103% | 58% | 
O=C(/C=C/c1cnccc1-c1cnn(C2CC2)c1)Nc1ccc(CN2CC(F)(F)C2)cc1 [Example 373, (2E)-3-(4-(1-Cyclopropyl-1H-pyrazol-4-yl)pyridin-3-yl)-N-(4-((3,3-difluoroazetidin-1-yl)methyl)phenyl)acrylamide sulfate] |  |  |  | Percent inhibition of CDK19 activity (%) ([1]; sulfate): 101%; Percent inhibition of CDK8 activity (%) ([2]; sulfate): 101%; Percent inhibition of RPMI8226 cell growth (%) ([3]; sulfate): 70%
O=C(/C=C/c1cnccc1-c1ccc2nccn2c1)Nc1ccc(CN2CCOCC2)cc1 [Example 222, (2E)-3-(4-(imidazo[1,2-a]pyridin-6-yl)pyridin-3-yl)-N-(4-(morpholin-4-ylmethyl)phenyl)acrylamide] | 100% | 101% | 52% | 
O=C(/C=C/c1cnccc1-c1cnn(C2CC2)c1)Nc1ccc(COC(F)F)cc1 [Example 292, (2E)-3-(4-(1-Cyclopropyl-1H-pyrazol-4-yl)pyridin-3-yl)-N-(4-((difluoromethoxy)methyl)phenyl)acrylamide] | 93% | 97% | 52% | 
Cc1cc(NC(=O)/C=C/c2cnccc2-c2cnn(C3CC3)c2)ccc1CN1CCOCC1 [Example 142, (2E)-3-(4-(1-cyclopropyl-1H-pyrazol-4-yl)pyridin-3-yl)-N-(3-methyl-4-(morpholin-4-ylmethyl)phenyl)acryalmide] | 99% | 98% | 62% | 
O=C(/C=C/c1cnccc1-c1cn[nH]c1)Nc1ccc(CN2CCOCC2)cc1 [Example 33, (2E)-N-(4-(morpholin-4-ylmethyl)phenyl)-3-(4-(1H-pyrazol-4-yl)pyridin-3-yl)acrylamide] | 99% | 100% | 61% | 
Cn1cnc2ccc(-c3c(F)cncc3/C=C/C(=O)Nc3ccc(CN4CC(F)(F)C4)cc3)cc21 [Example 358, (2E)-N-(4-((3,3-Difluoroazetidin-1-yl)methyl)phenyl)-3-(5-fluoro-4-(1-methyl-1H-benzimidazol-6-yl)pyridin-3-yl)acrylamide] | 101% | 87% | 67% | 
CC(C)(F)Cc1ccc(NC(=O)/C=C/c2cnccc2-c2cnn(C3CC3)c2)cc1 [Example 293, (2E)-3-(4-(1-cyclopropyl-1H-pyrazol-4-yl)pyridin-3-yl)-N-(4-(2-fluoro-2-methylpropyl)phenyl)acrylamide] | 95% | 102% | 61% | 
Cn1cnc2ccc(-c3c(F)cncc3/C=C/C(=O)Nc3ccc4c(c3)CN(CC(F)(F)F)C4)cc21 [Example 357, (2E)-3-(5-fluoro-4-(1-methyl-1H-benzimidazol-6-yl)pyridin-3-yl)-N-(2-(2,2,2-trifluoroethyl)-2,3-dihydro-1H-isoindol-5-yl)acrylamide] | 96% | 101% | 69% | 
O=C(/C=C/c1cnccc1-c1cnn(Cc2ccccn2)c1)Nc1ccc(CN2CCOCC2)cc1 [Example 47, (2E)-N-(4-(morpholin-4-ylmethyl)phenyl)-3-(4-(1-(pyridin-2-ylmethyl)-1H-pyrazol-4-yl)pyridin-3-yl)acrylamide] | 98% | 101% | 57% | 
Cn1cc(-c2ccncc2/C=C/C(=O)Nc2ccc(CNC3CC(F)(F)C3)cc2)cn1 [Example 89, (2E)-N-(4-(((3,3-difluorocyclobutyl)amino)methyl)phenyl)-3-(4-(1-methyl-1H-pyrazol-4-yl)pyridin-3-yl)acrylamide] | 97% | 96% | 63% | 
